# Columns and labels:
# MH-22A cells = experiment: PD-L1 expression on tumor cells (Western blotting, flow cytometry); format: cell-based, mouse; details: 72 h
# Method: Transcription factor p53 is involved in the regulation of PD-L1 expression (Cortez M A, 2015), which might serve as an indicator of the efficacy of anti-PD-1/PD-L1 treatment. Besides the effects on T cells, how APG-115 effects PD-L1 expression on MH-22A tumor cells was also investigated in vitro.
# MH-22A cells were treated with indicated doses of APG-115 for 72 h. The expression levels of MDM2, p53, total STAT3 (t-STAT3), phosphorylated STAT3 (p-STAT3), PD-L1, and β-actin (loading control) expression were determined by Western blotting. PD-L1 expression levels which were reflected by fluorescence intensity were determined by flow cytometry.
# [1] = test system: MH-22A murine hepatoma syngeneic model; experiment: In vivo efficacy study in MH-22A model; set-up: species or system mouse; details: for RTV (Mean ± SEM) d15 / T/C (%) d15: anti-PD-1 10 mg/kg i.p. biw; for Response rate (%) d15: anti-PD-1 10 mg/kg, n=10
# Method: Tumor volumes were measured twice weekly in two dimensions using a caliper, and the volume was expressed in mm^3 using the formula: Tumor Volume(mm^3)=0.5a×b^2 where a and b are the long and short diameters of the tumor, respectively.
# Relative tumor volume (RTV) was calculated using the following formula: RTV=Vt/V1 Where V1 and Vt are the average tumor volumes on the first day of treatment (day 1) and the average tumor volumes on a certain time point (day t).
# Synergy score was calculated using the following formula (Clarke R, Breast Cancer Research & Treatment, 1997, 46(2-3):255-278): Synergy score=((A/C)×(B/C))/(AB/C); A: response to treatment A; B: response to treatment B; C: response to vehicle control; AB: combination of treatment A and B.
# Standard NCI procedures were used to calculate tumor parameters. Percent tumor growth inhibition (% T/C) was calculated as the mean RTV of treated tumors (T) divided by the mean RTV of control tumors (C)×100%. The percentage T/C value is an indication of antitumor effectiveness: a value of T/C<42% is considered significant antitumor activity by the NCI. A T/C value <10% is considered to indicate highly significant antitumor activity, and is the level used by the NCI to justify a clinical trial if toxicity and certain other requirements are met (termed DN-2 level activity). A body weight loss nadir (mean of group) of greater than 20%, or greater than 20% of drug deaths are considered to indicate an excessively toxic dosage.
# Each mouse was inoculated subcutaneously at the right flank region with MH-22A tumor cells (5×10^6) in 0.2 mL of PBS for tumor development. The treatments were initiated when the mean tumor size reached ˜65 mm^3. The test articles were administered to the tumor-bearing mice according to the regimen shown in the experimental design Table 3. The day of start dosing was defined as d1.
# [2] = Phase I study APG-115-US-001 (NCT02935907): safety; format: in vivo
# Method: (§1) This Phase I study (APG-115-US-001) was designed to assess safety, toxicity, pharmacokinetics (PK), pharmacodynamics (PD), and antitumor activity of APG-115 orally in patients with advanced solid tumors in US (NCT02935907).
# For Safety study of APG-115, the safety evaluation included vital signs, electrocardiogram (ECG) parameters, Easter Cooperative Oncology Group (ECOG) performance status data, clinical laboratory tests and adverse event data. Safety assessments were performed in each treatment cycle.
# Single dose escalation study was conducted. A standard “3+3” design was employed to determine the maximum tolerated dose (MTD) of APG-115 by assessing the dose limiting toxicity (DLT) of APG-115. […] of APG-115 was tested: 10, 20, 50, 100, 200, and 300 mg. APG-115 was administrated orally every other day (QOD) for a consecutive 3 weeks (i.e. dosed at Day 1, 3, 5, 7, 9, 11, 13, 15, 17, 19, and 21), with one week dosing off as 4-weeks a cycle. […] The scheme of the trial design is provided below.
# [3] = test system: advanced soft tissue sarcoma and other solid tumors; experiment: Phase I study CTR20170975: antitumor activity; format: in vivo, human
# Method: Patients with advanced soft tissue sarcoma (STS), adenoid cystic carcinoma (ACC) or other solid tumors in China (CTR20170975) were treated with APG-115. In dose escalation, patients received APG-115 (100-200 mg) orally QOD for first 21 days of a 28-day cycle, until disease progression. Study objectives include safety (primary endpoint), pharmacokinetics (PK), pharmacodynamics (PD), and antitumor activity assessed every 8 weeks.
# This is a Phase I study (CTR20170975) is designed to assess the safety, dose-limiting toxicities (DLT), the maximum tolerated dose (MTD)/recommended phase 2 dose (RP2D), pharmacokinetics (PK), pharmacodynamics (PD) profile and anti-tumor activity of orally administered APG-115 in Chinese patients with advanced soft tissue sarcoma and other solid tumors.
# Among of the 14 patients, post baseline tumor measurements were obtained in 13 patients, as one subject was just starting the treatment of Cycle 2.
# [4] = test system: serum MIC-1 (PD marker of TP53 activation); experiment: Phase I study APG-115-US-001: pharmacodynamics; format: in vivo, human; details: within the dose range tested
# Description: as §1
# [5] = Phase I study APG-115-US-001: pharmacokinetics (LC/MS/MS, K2EDTA human plasma); format: in vivo; details: dose range of 20-300 mg
# Method: For PK study of APG-115, APG-115 in K2EDTA human plasma was determined using an LC/MS/MS method using D5-APG-115 as the internal standard (IS). APG-115 and the IS were extracted using protein precipitation extraction from human plasma. […] MS/MS detection was set at mass transitions of m/z 642.3→246.3 for APG-115 and m/z 647.4→246.1 for D5-APG-115 (IS) in TIS positive mode.
# [6] = APG-115 10 mg/kg p.o. qd, epacadostat 100 mg/kg p.o. bid
structure (smiles),measurement,setting,value
CCN1[C@@H](C(=O)NC23CCC(C(=O)O)(CC2)CC3)[C@H](c2cccc(Cl)c2F)[C@]2(C(=O)Nc3cc(Cl)ccc32)C12CCCCC2 [APG-115],expression of TP53 and pSTAT3 proteins,MH-22A cells; Western blotting,upregulated in a dose-dependent manner
same,surface expression of PD-L1,MH-22A cells; flow cytometry,dose-dependent increase
same,RTV (Mean ± SEM) d15,[1]; [6],37.8 ± 6.8
same,T/C (%) d15,[1]; [6],98%
same,Response rate (%) d15,"[1]; APG-115 10 mg/kg, epacadostat 100 mg/kg",0%
same,RTV (Mean ± SEM) d15,[1]; APG-115 50 mg/kg p.o. qd,36.2 ± 8.7
same,T/C (%) d15,[1]; APG-115 50 mg/kg p.o. qd,94%
same,Response rate (%) d15,[1]; APG-115 50 mg/kg,0%
same,antitumor activity as single agents,"[1]; APG-115 10 and 50 mg/kg, epacadostat 100 mg/kg",did not exert antitumor activity
same,MTD/RP2D of APG-115 monotherapy,"[2]; QOD 3 weeks on, 1 week off",100 mg
same,pts discontinued treatment: Adverse Event,"[2]; human, in vivo",3
same,DLTs observed during cycle 1,[2]; in vivo,Four
same,events determined as DLTs,[2]; in vivo,"Platelet count decreased, fatigue, and nausea"
same,patients with Absolute neutrophil count decreased (less than 1.00×10^3/uL) after C2D21,[2]; in vivo,three patients
same,target lesion decrease in the PR patient,"[3]; 150 mg, after 4 months withdraw, RECIST",~64%
same,"confirmed PR (Partial Response), patients","[3]; 150 mg, lipomatoid liposarcoma, TP53-WT and MDM2 Amp",1
same,"partial response, patients","[3]; 150 mg, liposarcoma with MDM2 amplification and TP53 wt (Example 5)",1
same,patients with SD as the best overall response,[3]; 13 patients (Example 5),5
same,Serum MIC-1 increase,[4],exposure dependent
same,AUC and Cmax versus dose,[5],generally increase dose proportionally

# Source: patent publication US12268665B2, “Combination of immunotherapies with MDM2 inhibitors” (ASCENTAGE PHARMA (SUZHOU) CO., LTD., priority 2018, dated 2025)
